From patent US10570176B2, “Anti-hepatitis B virus X protein polypeptide pharmaceutical” (priority 2015, dated 2020)
Several values for one entry are separate records, joined by “and”; a condition that tells them apart may be missing. Equal values may be shown once. Marks after values point to notes of the source that are not given here. Non-standard residues stand in square brackets, D forms with d. Residues, ends and D or L forms follow the SMILES beside them.

Columns and labels:
[1] = biological target: T1, HBx protein (Hepatitis B virus genotype D subtype ayw, UniProt P03165); assay: In vitro binding to recombinantly expressed HBx protein, Biacore 3000
T1 construct: made in house
Description: The recombinant plasmid (pET-30a-HBx) expressing HBx gene was self-constructed and preserved (Zhang H, et al. J Biomed Biotechnol, doi:10.1155/2009/289068), and then expression and purification of HBx were conducted according to above reference for the measurement of in vitro binding ability. Biacore 3000 biomolecular interaction analyzing unit (manufactured by GE Healthcare) was utilized to measure in vitro binding ability of polypeptide D-TTK001 to recombinantly expressed HBx protein. Polypeptide at different concentrations were injected for 180 seconds at a rate of 30 μL/min. In dissociation stage, HBS-EP buffer was injected for 900 seconds at a rate of 30 μL/min, then at a rate of 30 μL/min, 2 shots of 1 mM NaOH were injected for 20 seconds to regenerate the chip. All signals were calibrated using channel 1 as the reference channel. Binding measurement was conducted twice, respectively, wherein in the first measurement, HBX was injected into the channel of the coupled polypeptide and the blank channel at concentrations of 0 nM, 10 nM, 50 nM, 100 nM, 500 nM and 600 nM, respectively. Binding time was 180 seconds and dissociation time was 400 seconds. On chip surface, 1 mM NaOH was injected for 20 seconds at a rate of 30 μL/min for regeneration. In the second measurement, HBX was injected into the channel of coupled polypeptide and the blank channel at concentrations of 0 nM, 10 nM, 50 nM, 588 nM, 1 μM, and 2 μM, respectively. Binding time was 180 seconds and dissociation time was 400 seconds. On chip surface, 1 mM NaOH was injected for 20 seconds at a rate of 30 μL/min for regeneration. Results were kinetically analyzed by BIA Evaluation Software.

[2] = system: HepAD38 cells; assay: MTT assay, proliferation of HepAD38 cells; format: cell-based; settings: 0.1, 1, 10, 100 μM, 48 hrs
Description: (1) Plating cells: suspend HepAD38 cells at exponential phase in RPMI1640 medium with 10% FBS, and plate 4000-5000 cells in a 96-well plate with 100 μL per well.
(2) Culturing cells: within 12 hrs. for adhesion of cultured cells, add different concentrations of synthesized D-TTK001 (or L-TTK001) polypeptides from Example 1 (0.1 μM, 1 μM, 10 μM and 100 μM) into 8 wells for each concentration, and incubate for 48 hrs. in common condition.
(3) Coloration: add 20 μL of MTT solution (5 mg/mL MTT in PBS buffer (pH7.4)) for each well.
(4) Incubate for 4 hrs., and carefully aspirate off the supernatant from the wells. Add 150 μL of DMSO into each well, shake for 10 min until the crystals were dissolved.
(5) Comparison: Read in an ELISA reader at 490 nm to measure the absorbance for each well. Results were calculated using Student's t-test.

[3] = system: HBV transgenic mice; assay: Serum HBV DNA copy number in HBV transgenic mice, real-time PCR; format: in vivo; settings: for effective rate (serum HBV DNA): tail i.v. daily
Description: HBV transgenic mice were purchased from Guangzhou Junketaite Pharmaceutical Technology Co., Ltd. The animal model is a 1.3 copies high expressing replicative form HBV whole-genome transgenic mice Tg (HBV 1.3 genome) Swb established using microinjection method by Guangzhou Junketaite Pharmaceutical Technology Co., Ltd. Serum HBsAg and HBeAg can be analyzed with common ELISA kit; serum HBV DNA of 93.93% positive transgenic mice is 10^4˜10^6 copy/mL; liver tissues in immunohistochemistry have HBsAg (cytoplasmic type) and HBcAg (karyotype) expression. […] This makes a good foundation for the transgenic model to be used in evaluating anti-HBV drugs.
(§1) Prepare D-TTK001 aseptically. Administer 2.5 mg/kg (10 mice) or 5.0 mg/kg (42 mice) based on mice weight through tail intravenous injection in a volume of 50 μL. Administer 50 μL of sterile PBS to blank control group (10 mice). Mice are 6-8 months old, half male and half female. Inject daily for 3 weeks (21 days in total). Take artery blood from mice tail before administration for future measurement of HBV DNA content in mice blood, record as T0 group. Take artery blood from mice tail after one week (T1+ group), two weeks (T2+ group), and three weeks (T3+ group) of administration. Take blood after one week of stopping administration (T4 group). Blood samples were standed in room temperature for 2-4 hours to prepare serum. Store samples in −80° C. refrigerator for future measurement of HBV DNA content in mice blood.
(i) Preparation of test samples: Take out the test samples from −80° C. refrigerator. Place it at room temperature for balancing. Take corresponding amount of reaction liquid, enzyme mix and internal standard by proportion (reaction liquid 38 μL per serving+enzyme mix 2 μL per serving+internal standard 0.2 μL per serving) according to numbers of test sample, negative control sample and reference sample, mix sufficiently as PCR-mix. Sample treatment (negative control, positive control quantitative reference and test samples are treated synchronously): Add 5 μL of cell nucleic releaser into each PCR reaction tube, then add 5 μL test sample into each tube, absorb back and forth for 3-5 times and mix; after more than 10 minutes interval, add 40 μL of PCR-mix into each tube, close the tubes with caps, centrifuge at 2000 rpm for 30 seconds.
Utilizing real time PCR HBV DNA assay kit manufactured by Sun Yat-sen University Daan Gene Co., Ltd. according to the manufacturer's specification as followed: Place PCR reaction tube into sample cell of PCR instrument, set negative control, positive control, quantitative references A-D and test sample in corresponding order, and then set sample name and concentration of quantitative reference. Selection of fluorescence detection channel: for example, in ABI 7300 instrument, i) select FAM channel (reporter: FAM, quencher: none) to detect HBV-DNA; ii) select HEX/VIC channel (reporter: HEX/VIC, quencher: none) to detect HBV-internal standard; iii) set passive reference as ROX.
Set analysis conditions: adjust start value, stop vale of Baseline and Value of Threshold according to analyzed image (arbitrary adjustable by user according to actual needs, start value can be 1˜10, stop value can be 5˜10, Value can be 0.01˜0.2) to optimize standard curve in “Std curve” window, i.e., correlation between −1.0˜−0.97. Select “Analyze” in “Analysis” menu for automatic result analysis. Record value (C) of unknown variable in “Tray” window. “C” indicates concentration or content of the sample.

[4] = system: HBV transgenic mice; assay: Pathological observation of liver tissue of HBV transgenic mice; format: in vivo; settings: 5 mg/kg, tail intravenous injection, 3 weeks treatment
Description: as §1
After above experiments on HBV transgenic mice were finished, mice were sacrificed, and liver tissue was taken, fixed with formalin, embed with conventional method, to prepare tissue biopsies, pathological observation was then conducted.

[5] = system: HepG2-X cells inoculated tumor in nude mice; assay: Survival of nude mice bearing HepG2-X inoculated tumor; format: in vivo; settings: 0.1 mg/kg or 5.0 mg/kg, tail i.v. daily for 30 days
Description: Suspend HepG2-X cells at exponential phase by treating with trypsin, count the number of cells, dilute to 1×10^7 cells/mL with sterile physiological saline, and then store in ice water. Take two female BALB/C mice of 4˜6 weeks age: i) one mouse in control group, inject 0.2 mL of above diluted cells to the armpit of right forelimb for each mouse, then only inject 0.5 mL of sterilized distilled water (without polypeptide drugs); ii) one mouse in experimental group with an administration dose of 10 mg/kg weight. Inject 0.2 mL of above diluted cells to the armpit of right forelimb for each mouse, after 20 days of injection, remove tumor tissue aseptically, cut into small tissue pieces, back inoculate to female BALB/C mice of 4˜6 weeks age for 18 mice in total. After tumor volume (V=L×W^2 0.5) reaches 100 mm^3, divide 18 mice into 3 groups each having 6 mice. The first group is control group, tail intravenous injecting with sterile PBS. […] Inject daily for 30 days, measure mice weight and tumor volume before each injection, and observe survival time of nude mice. After mice dies, perform analysis using Kaplan-Meier method to plot survival curve, Log-Rank is employed for statistical analysis.

T1 sequence (P03165 whole entry): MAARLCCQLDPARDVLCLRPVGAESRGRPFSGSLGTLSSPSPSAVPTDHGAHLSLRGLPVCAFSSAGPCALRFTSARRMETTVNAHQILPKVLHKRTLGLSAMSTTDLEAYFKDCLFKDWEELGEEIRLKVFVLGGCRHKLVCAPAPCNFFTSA

CSCC[C@@H](NC(=O)[C@H](NC(=O)[C@@H](C)NC(=O)[C@@H](CO)NC(=O)CN)C(C)C)C(=O)N[C@H](Cc1ccccc1)C(=O)N[C@H](CO)C(=O)N[C@H](CO)C(=O)N[C@H](CCCCN)C(=O)N[C@H](CCC(=O)O)C(=O)N[C@H](CCCNC(=N)N)C(=O)NCC(=O)O [D-TTK001, Gly-D-Ser-D-Ala-D-Val-D-Met-D-Phe-D-Ser-D-Ser-D-Lys-D-Glu-D-Arg-Gly] (H-G[dS][dA][dV][dM][dF][dS][dS][dK][dE][dR]G-OH; N-terminus and C-terminus assumed)
Kd ([1]; KD, Biacore 3000, first and second measurement): 29.9 nM and 40.3 nM | in vitro binding to HBx compared with L-polypeptide anti-HBxP1# ([1]; comparison in words): lower than that of L-polypeptide anti-HBxP1# | Kd ([1]; in vitro binding to HBx, in vitro binding analysis results): 35 nM | Minimum effective dose on growth and proliferation (MTT) [2]: 10 µM | copy number of HBV DNA in serum ([3]; 2.5 mg/kg and 5.0 mg/kg, tail intravenous injection): clearly reduced | effective rate (serum HBV DNA) ([3]; 2.5 mg/kg group, from one week (T1+ group), 3 out of 10 mice): 30% | effective rate (serum HBV DNA) ([3]; 5.0 mg/kg group, 23 out of 42 mice): 54.8% | time dependent decreasing effective rate ([3]; 5.0 mg/kg group, 7 out of 23 mice): 30.4% | effective rate (serum HBV DNA) from one week (T1+ group) ([3]; 5.0 mg/kg group, 18 out of 39 mice): 46.2% | ballooning degeneration of hepatocytes in liver tissue [4]: none of 6 mice in experimental group showed ballooning degeneration of hepatocytes | survival of tumor bearing nude mice [5]: clearly prolonged
